Assay results: patent EP0023335A1, “N-Hydroxyalkylimidazoline derivatives, a method for their preparation and their application” (Henkel Kommanditgesellschaft auf Aktien, priority 1979, dated 1981)
In brackets after ≈: the same amount, converted by molar mass.

Tests used:
Assay type in all cases: cell-based
[1] = tested on: Candida albicans ATCC 10 231; experiment: Inhibition series in liquid nutrient medium, tube test CII1 (DGHM guidelines); conditions: ATCC10, read-out: antimikrobielle Wirkung (Hemmreihen)
Text: (§1) Die antimikrobielle Wirkung der vorstehenden Imidazolin-Acetate geht aus folgender Tabelle hervor:
(§2) Die Prüfung erfolgte in Hemmreihen in flüssigem Nährsubstrat gegenüber den genannten Keimen im Röhrchentest CII1 gemäß Richtlinien der DGHM für chemische Desinfektionsmittel.

[2] = tested on: Staphylococcus aureus SG 511; experiment: as above; conditions: SG511, read-out: antimikrobielle Wirkung (Hemmreihen)
Text: as §1, §2

[3] = tested on: Candida albicans; experiment: Microbicidal action in suspension test; conditions: inoculum 1,9 x 10^8 /ml diluted 1:100, room temperature, in H2O
Experimental: (§3) 55,0 g (0,26 Mol) des Imidazolins Nr. 6 der Tabelle 1 wurden in 30 ml Isopropanol gelöst und mit 32,6 g (0,26 Mol) Benzylchlorid in 3 Stunden bei 80'- 85 °C quaterniert. Danach wurde das Isopropanol abdestilliert und das Produkt mit Wasser auf 30 % Aktivsubstanz eingestellt. Die Ergebnisse der Prüfung der mikrobiziden Wirkung einiger Imidazoliniumsalze der Tabelle 2 finden sich in der nachfolgenden Tabelle 3: […]

[4] = tested on: Escherichia coli; experiment: Microbicidal action in suspension test; conditions: inoculum 3,7 x 10^8 /ml diluted 1:100, room temperature, in H2O
Experimental: as §3

[5] = tested on: Pseudomonas aeruginosa; experiment: Microbicidal action in suspension test; conditions: inoculum 1,6 x 10^8 /ml diluted 1:100, room temperature, in H2O
Experimental: as §3

[6] = tested on: Staphylococcus aureus; experiment: Microbicidal action in suspension test; conditions: inoculum 3,0 x 10^8 /ml diluted 1:100, room temperature, in H2O
Experimental: as §3

## CCCCCCCCCCC(O)CN1CCN=C1CCCCCCCCC (stereo not shown) [Imidazolin-Nr.4-acetat]
[1]
  MIC: 50 µg/mL (≈ 131 µM)
[2]
  MIC: < 10 µg/mL

## CCCCCCCCCC1=[N+](C)CCN1CC(O)CCCCCCCC (stereo not shown) [Imidazoliniumsalz 1]
[3]; 50 ppm active
  Abtötungszeit in Minuten: 40 Minuten
[3]; 100 ppm active
  Abtötungszeit in Minuten: 10 Minuten
[4]; 10 ppm active
  Abtötungszeit in Minuten: x (x = > 120 Minuten)
[4]; 50 ppm active
  Abtötungszeit in Minuten: 20 Minuten
[4]; 100 ppm active
  Abtötungszeit in Minuten: ≤ 2,5 Minuten
[5]; 50 ppm active
  Abtötungszeit in Minuten: 20 Minuten
[5]; 100 ppm active
  Abtötungszeit in Minuten: 10 Minuten
[6]; 10 ppm active
  Abtötungszeit in Minuten: 60 Minuten
[6]; 50 ppm active
  Abtötungszeit in Minuten: ≤ 2,5 Minuten
[6]; 100 ppm active
  Abtötungszeit in Minuten: ≤ 2,5 Minuten

## CCCCCCCCCCC(O)CN1CC[N+](C)=C1CCCCCCC (stereo not shown) [Imidazoliniumsalz 3]
[3]; 10 ppm active
  Abtötungszeit in Minuten: 20 Minuten
[3]; 50 ppm active
  Abtötungszeit in Minuten: 5 Minuten
[4]; 10 ppm active
  Abtötungszeit in Minuten: 5 Minuten
[4]; 50 ppm active
  Abtötungszeit in Minuten: ≤ 2,5 Minuten
[5]; 10 ppm active
  Abtötungszeit in Minuten: 60 Minuten
[5]; 50 ppm active
  Abtötungszeit in Minuten: 10 Minuten
[6]; 10 ppm active
  Abtötungszeit in Minuten: ≤ 2,5 Minuten
[6]; 50 ppm active
  Abtötungszeit in Minuten: ≤ 2,5 Minuten

## CCCCCCCCCCC(O)CN1CC[N+](C)=C1CCCCCCCCC (stereo not shown) [Imidazoliniumsalz 4]
[3]; 10 ppm active
  Abtötungszeit in Minuten: 20 Minuten
[3]; 50 ppm active
  Abtötungszeit in Minuten: 20 Minuten
[4]; 10 ppm active
  Abtötungszeit in Minuten: 60 Minuten
[4]; 50 ppm active
  Abtötungszeit in Minuten: 10 Minuten
[5]; 10 ppm active
  Abtötungszeit in Minuten: 10 Minuten
[5]; 50 ppm active
  Abtötungszeit in Minuten: 10 Minuten
[6]; 10 ppm active
  Abtötungszeit in Minuten: 5 Minuten
[6]; 50 ppm active
  Abtötungszeit in Minuten: 5 Minuten
